Source: publication PMC12118597 (Science Advances, 2025)
pIC50, pKi: −log10 of the molar value. Read-outs that look alike come from different tables or passages of the source.

Experiments:
[1] = target: T1, SARS-CoV-2 NSP3 macrodomain (Mac1) (Severe acute respiratory syndrome coronavirus 2, UniProt P0DTD1); assay: biochemical; format: binding
[2] = target: T1, SARS-CoV-2 NSP3 macrodomain (Mac1); format: binding; settings: for binding by crystal soaking: P43 crystal form, repeated attempts, result in words
[3] = compound at 200 μM, mean of three to four technical replicates, read-out: % competition at 200 μM (preliminary HTRF screen)
[4] = ligand modeling, Mac1 crystal soak
[5] = read-out: IC50 (confirmatory HTRF dose-response screen)
[6] = stereoisomer(s) modeled as bound, residues 201/202/203
[7] = single dose concentration 200 μM (TS-FrankenROCS series)
[8] = SARS CoV-2 macrodomain HTRF assay
[9] = SARS CoV-2 macrodomain HTRF assay, single dose concentration 200 μM, read-out: Average % competition
[10] = SARS CoV-2 macrodomain HTRF assay, dose-response, read-out: IC50
[11] = SARS CoV-2 macrodomain HTRF assay, single dose concentration 200 μM

Row | SMILES | Number of isomers bound [2, 4] | pKi [1, 8] | Ligand efficiency (binding enery per heavy atom) [1, 8] | pIC50 [1, 10] | other results
1 | Nc1ncnc2c1ncn2[C@@H]1O[C@H](COP(=O)(O)OP(=O)(O)OC[C@H]2O[C@@H](O)[C@H](O)[C@@H]2O)[C@@H](O)[C@H]1O.[Na].[Na] [ADP-ribose, reference compound] | – | – | – | – | Hill slope ([1]; HTRF binding curve, SARS-CoV-2 Mac1): 1.1; X-ray crystal structure ([2]; TRUE = crystal structure with ligand obtained): TRUE
2 | O=C(O)C1CCCN1S(=O)(=O)c1cccc2nsnc12 (stereo not shown) [AVI-2] | 1 | – | – | – | inhibition at 200 µM [1, 3]: 23%
3 | c1ccc(-n2nnnc2CSc2nnc(NC3CC3)s2)cc1 [AVI-286] | – | – | – | – | Number of isomers bound [2]: 1
4 | COC1CCCN(S(=O)(=O)c2cc(Cl)cnc2N)C1 (stereo not shown) [AVI-290] | – | – | – | – | binding by crystal soaking [2]: failed to observe binding
5 | Nc1ncc(Cl)cc1S(=O)(=O)N1CCCC(O)C1 (stereo not shown) [AVI-295] | – | – | – | – | binding by crystal soaking [2]: failed to observe binding
6 | Nc1nnc(SCCn2c(=O)oc3ccccc32)s1 [AVI-296] | – | – | – | – | Number of isomers bound [2]: 1
7 | CC1CC(C(=O)O)CCN1C(=O)c1ccc2c(c1)OCC(=O)N2 (stereo not shown) [AVI-303] | 1 | – | – | – | inhibition at 200 µM [1, 3]: < 10%; inhibition at 200 µM ([1]; single dose concentration 200 μM (TS-FrankenROCS series), read-out: Average % competition): < 10%
8 | OCC(Cc1ccccc1)Nc1ncnc2[nH]ccc12 (stereo not shown) [AVI-313] | 2 | – | – | – | Ligand efficiency (binding enery per heavy atom) [1]: 0.27; pKi ([1]; dose-response): 3.92; pIC50 [1, 5]: 3.89; Isomers modeled [2, 6]: S,R
9 | O=C(Nc1ccsc1C(=O)O)c1ccc2c(c1)OCO2 [AVI-316] | 1 | – | – | – | –
10 | Cc1sc2ncnc(Sc3ccccc3C(=O)O)c2c1C [AVI-317] | 1 | – | – | – | –
11 | Cc1c(C)n(Cc2ccccc2)c2ncnc(N)c12 [AVI-321] | 1 | – | – | – | inhibition at 200 µM [1, 3]: 19%
12 | CC(CNC(=O)c1ccc2c(c1)CCC(=O)N2)C(=O)O (stereo not shown) [AVI-328] | 2 | – | – | – | Ligand efficiency (binding enery per heavy atom) [1]: 0.25; pKi ([1]; dose-response): 3.68; pIC50 [1, 5]: 3.66; Isomers modeled [2, 6]: R,S
13 | Cc1cc2c(=O)n(CCN3C(=O)c4ccccc4S3(=O)=O)nnc2s1 [AVI-341] | 1 | – | – | – | inhibition at 200 µM [1, 3]: 11%; Average % competition [1, 7]: 11%
14 | CC1CCN(C(=O)c2ccc3c(c2)nc(CO)n3C)CC1C(=O)O (stereo not shown) [AVI-348] | 1 | – | – | – | inhibition at 200 µM [1, 3]: < 10%; Average % competition [1, 7]: <10%
15 | CC(C)(O)[C@H]1CCCN1c1ncnc2[nH]ccc12 [AVI-607, 2-[(2R)-1-{7H-pyrrolo[2,3-d]pyrimidin-4-yl}pyrrolidin-2-yl]propan-2-ol] | 1 | 5.33 | 0.41 | – | Ligand efficiency ([1]; Binding energy per heavy atom): 0.41; pIC50 [1, 5]: 5.29
16 | OC[C@@H]1C[C@H](F)CN1c1ncnc2[nH]ccc12 [AVI-609] | 1 | – | – | – | inhibition at 200 µM [1, 9]: 52%; inhibition at 200 µM [1, 3]: 52%
17 | OC[C@@H]1C[C@H](O)CN1c1ncnc2[nH]ccc12 [AVI-610] | 1 | 3.82 | 0.31 | 3.80 | –
18 | NC(=O)C1(O)CCN(c2ncnc3[nH]ccc23)C1 (stereo not shown) [AVI-611] | 1 | – | – | – | Average % competition [1, 11]: 30%; inhibition at 200 µM [1, 3]: 30%; Isomers modeled [2, 6]: S,S
19 | CCC1(O)CCN(c2ncnc3[nH]ccc23)C1 (stereo not shown) [AVI-612] | 1 | – | – | – | Average % competition [1, 11]: 22%; inhibition at 200 µM [1, 3]: 22%
20 | O[C@@H]1CN(c2ncnc3[nH]ccc23)C[C@H]1F [AVI-616] | 1 | – | – | – | Average % competition [1, 11]: 15%; inhibition at 200 µM [1, 3]: 15%
21 | O[C@H]1COC[C@@H]1Nc1ncnc2[nH]ccc12 [AVI-1444, (3R,4S)-4-((7H-pyrrolo[2,3-d]pyrimidin-4-yl)amino)tetrahydrofuran-3-ol] | 1 | – | – | – | –
22 | Cc1c[nH]c2ncnc(NCC3(O)CCSCC3)c12 [AVI-4195, 4-(((5-methyl-7H-pyrrolo[2,3-d]pyrimidin-4-yl)amino)methyl)tetrahydro-2H-thiopyran-4-ol] | – | 4.32 | 0.31 | 4.28 | –
23 | CC1CCCC(O)(CNc2ncnc3[nH]ccc23)C1 (stereo not shown) [AVI-4307] | – | 4.43 | 0.32 | 4.40 | –
24 | OC1(CNc2ncnc3[nH]ccc23)CCC(F)(F)CC1 [AVI-4308] | – | 3.89 | 0.27 | 3.85 | –

Row | SMILES | Number of isomers bound [2, 4] | pKi [1, 8] | Ligand efficiency (binding enery per heavy atom) [1, 8] | pIC50 [1, 10] | other results
25 | OC1(CNc2ncnc3[nH]ccc23)CCCC(C(F)(F)F)C1 (stereo not shown) [AVI-4309] | – | 3.85 | 0.24 | 3.82 | –
26 | CC1(C)CCC(O)(CNc2ncnc3[nH]ccc23)CC1 [AVI-4310] | – | 4.15 | 0.29 | 4.12 | –
27 | OC1(CNc2ncnc3[nH]ccc23)CCCOC1 (stereo not shown) [AVI-4311] | – | 3.80 | 0.29 | 3.77 | –
28 | OC1(CNc2ncnc3[nH]ccc23)COC2CC1C2 (stereo not shown) [AVI-4313] | – | 3.92 | 0.29 | 3.89 | –
29 | OC1(CNc2ncnc3[nH]ccc23)CCOCC1 [AVI-4314] | – | 3.68 | 0.28 | 3.64 | –
30 | OC1(CNc2ncnc3[nH]ccc23)CCC2(CC1)OCCO2 [AVI-4315] | – | 3.70 | 0.23 | 3.68 | –
31 | O=S1(=O)CCCC(O)(CNc2ncnc3[nH]ccc23)C1 (stereo not shown) [AVI-4317] | – | 4.00 | 0.28 | – | pIC50 [1, 5]: 3.96
32 | CN(CC1(O)CCOCC1)c1ncnc2[nH]ccc12 [AVI-4318] | – | 4.18 | 0.30 | 4.15 | –
33 | OC1(CNc2ncnc3[nH]ccc23)CCSCC1 [AVI-4319] | – | 3.80 | 0.29 | 3.77 | –
34 | OC1(CNc2ncnc3[nH]ccc23)CC2CCC1CC2 (stereo not shown) [AVI-4320] | – | 4.11 | 0.28 | 4.08 | –
35 | CC(Nc1ncnc2[nH]ccc12)C1(O)CCCCC1 (stereo not shown) [AVI-4321] | – | 4.35 | 0.32 | 4.32 | –
36 | OC1(CNc2ncnc3[nH]ccc23)CCCSC1 (stereo not shown) [AVI-4322] | – | 4.31 | 0.33 | 4.28 | –
37 | Cc1c[nH]c2ncnc(NCC3(O)CCC(O)CC3)c12 (stereo not shown) [AVI-4329] | – | – | – | – | Isomers modeled ([2]; stereoisomer(s)/conformations of the soaked ligand modeled in the Mac1 crystal structure): rr,rr
38 | Cc1c[nH]c2ncnc(NCC3(O)CCC(C)(C)CC3)c12 [AVI-4330] | – | 3.21 | 0.21 | 3.19 | –
39 | CC(C)C1CCCN1c1ncnc2[nH]ccc12 (stereo not shown) [AVI-5216] | – | – | – | – | inhibition at 200 µM [1, 9]: 35%; inhibition at 200 µM [1, 3]: 35%
40 | CC(C)(CO)Nc1ncnc2[nH]ccc12 [AVI-5266] | – | 4.52 | – | 4.49 | –
41 | OCC1(Nc2ncnc3[nH]ccc23)COC1 [AVI-5649] | – | – | – | – | Average % competition ([1]; Single dose, concentration 200 μM): <10%; inhibition at 200 µM [1, 3]: < 10%
42 | OCC1C=CCCN1c1ncnc2[nH]ccc12 (stereo not shown) [AVI-5998] | – | 3.82 | 0.31 | 3.80 | –
43 | OCC1CC=CCN1c1ncnc2[nH]ccc12 (stereo not shown) [AVI-6002] | – | 4.32 | 0.35 | 4.28 | –
44 | Nc1cccc(CSC2CCc3ccccc32)n1 (stereo not shown) [AVI-6015] | – | – | – | – | pIC50 ([1]; read-out: IC50): < 3.00
45 | CC(O)C1CCN(c2cc(N3CCC(c4ccccc4)CC3C)ncn2)C1 (stereo not shown) [AVI-6016] | – | – | – | – | pIC50 ([1]; read-out: IC50): < 3.00
46 | Nc1ncnc(N2CCCCC3(CCC3)C2)c1Cl [AVI-6017] | – | – | – | – | pIC50 ([1]; read-out: IC50): < 3.00
47 | OC1(CNc2ncnc3[nH]ccc23)CCCCC1 [AVI-6217] | – | 4.41 | 0.34 | 4.38 | –
